# Laboratory results reported in patent US20110263542A1, “METHODS TO TREAT PAIN USING AN ALPHA-2 ADRENERGIC AGONIST AND AN ENDOTHELIN ANTAGONIST” (ENGOGENX, priority 2008, published 2011).
# Entries after “also recorded” stand apart in the source; their conditions may differ. Structures can show the parent of a compound that is named as a salt. Where two headings read alike, the source gives them in different places.
# Tests used:
# [1] = cited from earlier work
# [2] = cited from earlier work; remark: listed apart in the source
# rats = details: for analgesic effect of agent alone (in words): clonidine 1 mg/kg ip; for effect of antagonist on clonidine induced potentiation of morphine analgesia / effect of antagonist on clonidine induced potentiation of oxycodone analgesia: idazoxan 2 mg/kg ip or yohimbine 2 mg/kg ip 15 min before clonidine 1 mg/kg ip; for effect of antagonist on clonidine induced potentiation of morphine analgesia: morphine 8 mg/kg sc
# [3] = system: patients having coronary artery bypass graft surgery; details: cited from earlier work
# [4] = system: patients, immediately after spinal fusion; details: cited from earlier work
# mice = assay: Tail-flick latency (antinociception) in mice
# Experimental: Animals: Male Swiss Webster mice weighing 25 to 30 g (Harlan, Indianapolis, IN) were used. The animals were housed five per cage in a room with controlled ambient temperature (23±1° C.), humidity (50±10%) and twelve-hour light/dark cycle (6.00 AM to 6.00 PM). Food and water were made available ad libitu Experiments were carried out after the animals had been acclimated to this environment for at least 4 days.
# Statistics: All data values are presented as mean±SEM. ANOVA followed by post-hoc test (Bonferroni's Test) were used to test differences within and between groups. A level of P<0.05 was considered significant.
# Application of theiinal stimulation (focused light) to the tail of an animal provoked withdrawal of the tail by a brief vigorous movement. The reaction time of this movement was recorded as tail-flick latency by using an analgesiometer. […] A cutoff time of 10 sec was used to prevent damage to the tail. Tail flick latency values were subtracted from the basal latency and the differential values were used to calculate the area under the curve (AUC).
# [5] = system: patients undergoing cesarean delivery; details: epidural clonidine 75 μg; cited from earlier work
# Body temperature in mice = type: in vivo; details: clonidine 0.3 mg/kg with 0.5% CMC or sulfisoxazole 250, 500 or 1000 mg/kg; after 3 hours; FIG. 6B
molecule,measurement,setting,value
"4-amino-N-(3,4-dimethyloxazol-5-yl)-benzenesulfonamide [Sulfisoxazole]",concentration in the cerebrospinal fluid (in words),"[1]; average, relative to blood",about a third of blood concentration
same,excreted in urine by kidney,[1]; in 24 hours,95%
same,binding to plasma proteins (in words),[1]; in vivo,extensively bound to plasma proteins
same,solubility (in words),[2],highly soluble
"Cc1noc(NS(=O)(=O)c2cccc3c(N(C)C)cccc23)c1C [BMS182874, 5-(dimethylamino)-N-(3,4-dimethyl-5-isoxazolyl)-1-naphthalene sulfonamide]",analgesic effect of agent alone (in words),rats; BMS182874 50 μg icv,did not produce any analgesic effect
"COC(=O)[C@@H]1[C@H]2C[C@H]3c4[nH]c5ccccc5c4CCN3C[C@@H]2CC[C@@H]1O [Yohimbine, 17α-hydroxy-yohimban-16α-carboxylate hydrochloride]",effect of antagonist on clonidine induced potentiation of morphine analgesia,rats; hydrochloride,Blocked
same,effect of antagonist on clonidine induced potentiation of oxycodone analgesia,"rats; oxycodone 4 mg/kg sc, hydrochloride",Blocked
"CN1CC[C@]23c4c5ccc(O)c4O[C@H]2[C@@H](O)C=C[C@H]3[C@H]1C5.O=S(=O)(O)O [Morphine, 7,8-didehydro-4,5α-epoxy-17-methylmorphinan-3,6α-diol sulfate]","morphine dosage in the first 24 h, median (25th-75th percentiles)",[3]; i.v. PCA morphine group (control),37 (30.5-51) mg
same,"morphine dosage in the first 24 h, median (25th-75th percentiles)","[3]; intrathecal morphine 4 microg/kg group, plus i.v. PCA morphine",40.5 (15-61.5) mg
"Clc1cccc(Cl)c1NC1=NCCN1 [Clonidine, N-(2,6-dichlorophenyl)-4,5-dihydro-1H-imidazol-2-amine]",change in mean arterial pressure,[4]; clonidine group at T11,−26+/−2%
same,mean arterial pressure,[4]; clonidine group,74+/−2 mmHg
same,"morphine requirement, dose for each patient","[4]; clonidine group, placebo 10.8+/−1.2",3.8 ± 1 mg
same,pain score (visual analog scale 0-100 mm) after treatment,"[4]; clonidine i.v. 5 micrograms/kg 1st h then 0.3 microgram/kg/h for 11 h, decreased from 42+/−5, mean+/−standard error",26+/−3 mm
same,analgesic effect of agent alone (in words),rats; BMS182874 50 μg icv,produced analgesia; also recorded: significant
same,effect on morphine analgesia in rats treated with BMS182874,"rats; clonidine 0.3 and 1.0 mg/kg ip, BMS182874 50 μg icv, morphine 4 mg/kg sc",increase in morphine analgesia
same,effect on oxycodone analgesia in rats treated with BMS182874,"rats; clonidine 0.3 and 1.0 mg/kg ip, BMS182874 50 μg icv, oxycodone 4 mg/kg sc",increase in oxycodone analgesia
same,AUC0→240 min determined from tail flick latency,"mice; Example 3, FIG. 1B: morphine 4 mg/kg s.c., clonidine 2 mg/kg i.p. 30 min before morphine or vehicle, mean±SEM, N=6",68.4±12.3
same,AUC0→240 min of tail flick latency,"mice; Example 5 Study 2, FIG. 4: clonidine 2 mg/kg i.p., sulfisoxazole 1000 mg/kg oral, morphine 8 mg/kg s.c., mean±SEM, N=6",increase in AUC
same,tail flick latency (in words),"mice; clonidine 0.3 mg/kg i.p. plus 0.5% CMC p.o., by 6 hours",approximately the level of vehicle treated animals
same,effect on duration of analgesia produced by 2 mg of morphine,[5],doubled
same,"body temperature, lowest value (from 37° C.)",Body temperature in mice,approximately 32 °C
"c1ccc2c(c1)OCC(C1=NCCN1)O2 (centres unmarked) [Idazoxan, 2-(1,4-benzodioxan-2-yl)-2-imidazoline]",effect of antagonist on clonidine induced potentiation of morphine analgesia,rats,did not affect; also recorded: No effect
same,effect of antagonist on clonidine induced potentiation of oxycodone analgesia,rats; oxycodone 4 mg/kg sc,Blocked
